For the experiment, the target named is Alkaline phosphatase (ALP). In words: Cu2+-thiamine fluorescence assay of ALP hydrolysis of ascorbic acid 2-phosphate. In kind it is biochemical.

For 1 compound, IC50 results are on record in article PMC7863742, “Sensitive Fluorescence Assay for the Detection of Alkaline Phosphatase Based on a Cu^2+-Thiamine System” (Sensors (Basel, Switzerland), 2021).

By pIC50 is commonly meant the IC50 on a negative log10 scale, so that one unit is a factor of ten.

pIC50: −log10 of the molar value.

Compound `[O]=[V]([OH])([OH])[OH]` [Na3VO4] had a negative-log IC50 (pIC50) of 3.58.
